Read-outs that look alike come from different tables or passages of the source.
Key:
[1] = target: T1, mTOR kinase (mTOR(1360-2549)+GBL) (Homo sapiens, UniProt P42345); assay: In vitro mTOR kinase assay (TR-FRET); format: biochemical; conditions: read-out: activity level (Ki) in the mTOR kinase assay
T1 construct: mTOR(1360-2549)+GBL, prepared in-house; made in house
Protocol: (§1) The reaction is stopped by an addition of a Terbium-labeled phospho-specific antibody, e.g., Tb-labeled anti-p4E-BP1 T37/T46, (Invitrogen, product #PR8835A), EDTA, and TR-FRET buffer solution (Invitrogen, Product #PR3756B). Product formation is detected by way of time-resolved fluorescence resonance energy transfer (TR-FRET), which occurs when the phosphorylated substrate and labeled antibody are in close proximity due to phospho-specific binding. Enzymatic activity is measured as an increase in TR-FRET signal using a Perkin Elmer Envision plate reader.
Compound activity is tested in 10 point dose curves starting at the highest final concentration of 10 uM. They are serially diluted in 100% DMSO prior to further dilution with assay buffer. […] 8 μL of solution containing 2 nM Tb-anti-p4E-BP1 antibody & 10 mM EDTA diluted TR-FRET buffer is then added and incubated for 30 minutes to stop the reaction. The plate is scanned with the Envision plate reader. Ki values are calculated in Assay Explorer using the Morrison ATP-competitive tight binding equation for Ki apparent determination.

[2] = test system: PC3 cells; assay: In vitro cell proliferation assay; format: cell-based; conditions: Homo sapiens
Protocol: Efficacy of Formula I compounds were measured by a cell proliferation assay employing the following protocol: 1. An aliquot of 20 μl of cell culture containing about 10^3 cells (PC3 or MDAMB361.1) in medium was deposited in each well of a 384-well, opaque-walled plate. 2. Control wells were prepared containing medium and without cells; Cells were allowed to settle overnight. 3. The compound was added to the experimental wells and incubated for 3 days. 4. The plates were equilibrated to room temperature for approximately 30 minutes. 5. A volume of CellTiter-Glo Reagent equal to the volume of cell culture medium present in each well was added. 6. The contents were mixed for 2 minutes on an orbital shaker to induce cell lysis. 7. The plate was incubated at room temperature for 20 minutes to stabilize the luminescence signal. […] Luminescence was recorded and reported in graphs as RLU=relative luminescence units. Alternatively, cells were seeded at optimal density in a 96 well plate and incubated for 4 days in the presence of test compound. […] IC50 values were calculated using a sigmoidal dose response curve fit.

[3] = target: T2, PI3K-alpha (Homo sapiens, UniProt P42336); format: biochemical
T2 construct: purchased Upstate Cell Signaling Solutions
T2 sequence (P42336 whole entry, species assumed): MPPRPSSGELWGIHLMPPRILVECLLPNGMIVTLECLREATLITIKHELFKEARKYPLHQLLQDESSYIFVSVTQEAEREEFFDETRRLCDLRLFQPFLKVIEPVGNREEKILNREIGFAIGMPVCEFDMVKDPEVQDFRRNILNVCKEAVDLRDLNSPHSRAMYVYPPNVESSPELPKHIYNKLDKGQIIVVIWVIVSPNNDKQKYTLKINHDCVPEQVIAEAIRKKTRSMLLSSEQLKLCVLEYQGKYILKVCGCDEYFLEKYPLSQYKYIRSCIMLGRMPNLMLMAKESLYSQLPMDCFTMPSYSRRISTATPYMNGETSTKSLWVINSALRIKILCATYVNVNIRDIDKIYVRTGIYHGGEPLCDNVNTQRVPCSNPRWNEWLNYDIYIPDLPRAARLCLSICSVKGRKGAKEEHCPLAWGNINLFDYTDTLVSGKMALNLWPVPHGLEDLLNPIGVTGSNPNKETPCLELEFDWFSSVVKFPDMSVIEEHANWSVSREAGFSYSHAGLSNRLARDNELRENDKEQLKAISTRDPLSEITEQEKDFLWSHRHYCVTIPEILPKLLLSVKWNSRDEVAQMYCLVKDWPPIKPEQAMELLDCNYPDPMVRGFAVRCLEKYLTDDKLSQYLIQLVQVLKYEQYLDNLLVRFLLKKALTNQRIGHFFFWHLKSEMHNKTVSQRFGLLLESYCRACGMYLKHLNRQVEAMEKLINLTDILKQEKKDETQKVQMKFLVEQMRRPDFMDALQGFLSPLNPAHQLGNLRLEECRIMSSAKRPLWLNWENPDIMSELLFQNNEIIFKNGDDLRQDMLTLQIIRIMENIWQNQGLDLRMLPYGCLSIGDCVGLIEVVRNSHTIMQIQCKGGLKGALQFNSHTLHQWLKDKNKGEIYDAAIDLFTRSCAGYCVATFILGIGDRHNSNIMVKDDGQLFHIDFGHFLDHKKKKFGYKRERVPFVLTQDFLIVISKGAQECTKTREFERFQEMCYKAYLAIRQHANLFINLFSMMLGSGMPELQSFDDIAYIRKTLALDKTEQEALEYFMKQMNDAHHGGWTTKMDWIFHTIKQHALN
T2 sequence (P27986 whole entry partner, species assumed): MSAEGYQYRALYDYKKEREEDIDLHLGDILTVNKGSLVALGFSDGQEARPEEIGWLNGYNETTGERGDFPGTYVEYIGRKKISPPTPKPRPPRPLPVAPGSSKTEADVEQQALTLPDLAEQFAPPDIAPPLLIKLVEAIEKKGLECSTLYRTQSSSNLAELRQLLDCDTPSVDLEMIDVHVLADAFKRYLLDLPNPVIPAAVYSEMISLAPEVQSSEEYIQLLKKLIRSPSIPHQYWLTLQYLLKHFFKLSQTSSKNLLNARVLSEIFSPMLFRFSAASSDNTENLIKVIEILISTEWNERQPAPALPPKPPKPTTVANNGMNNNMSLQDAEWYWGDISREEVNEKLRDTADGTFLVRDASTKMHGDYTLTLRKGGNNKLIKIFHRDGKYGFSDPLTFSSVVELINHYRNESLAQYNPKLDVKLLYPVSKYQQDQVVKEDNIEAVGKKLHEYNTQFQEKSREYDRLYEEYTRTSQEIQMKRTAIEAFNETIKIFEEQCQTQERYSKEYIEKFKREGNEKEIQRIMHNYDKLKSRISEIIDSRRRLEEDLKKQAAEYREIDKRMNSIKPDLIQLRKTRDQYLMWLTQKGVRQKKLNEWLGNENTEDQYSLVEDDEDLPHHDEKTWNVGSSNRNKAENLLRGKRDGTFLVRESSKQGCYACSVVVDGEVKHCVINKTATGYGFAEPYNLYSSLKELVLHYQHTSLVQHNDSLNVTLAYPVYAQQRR
Protocol: as §1, with “The kinase activity of mTOR enzyme is assessed by incubating purified recombinant enzyme (mTOR(1360-2549)+GBL, prepared in-house) in a reaction mixture containing ATP, MnCl2, and a fluorescently labeled mTOR substrate, e.g., GFP-4E-BP1 (Invitrogen, product #PR8808A). The” for “The”, “reader. The assay is performed in a 384-well Proxiplate Plus (Perkin Elmer. Product #6008269) using the following protocol:” for “reader.”
Compound activity is tested in 10 point dose curves starting at the highest final concentration of 10 uM. They are serially diluted in 100% DMSO prior to further dilution with assay buffer. The reaction mixture (8 uls) containing 0.25 nM mTOR+GBL enzyme, 400 nM GFP-4E-BP1, 8 uM ATP, 50 mM Hepes pH 7.5, 0.01% Tween 20, 10 mM MnCl2, 1 mM EGTA, 1 mM DTT, 1% DMSO (+/−compound) is incubated at room temperature for 30 minutes. 8 μL of solution containing 2 nM Tb-anti-p4E-BP1 antibody & 10 mM EDTA diluted TR-FRET buffer is then added and incubated for 30 minutes to stop the reaction. The plate is scanned with the Envision plate reader. Ki values are calculated in Assay Explorer using the Morrison ATP-competitive tight binding equation for Ki apparent determination.
Binding Assays: Initial polarization experiments were performed on an Analyst HT 96-384 (Molecular Devices Corp, Sunnyvale, Calif.). […] After an incubation time of 30 minutes at room temperature, the reactions were stopped by the addition of GRP-1 and PIP3-TAMRA probe (Echelon-Inc., Salt Lake City, Utah) 100 nM and 5 nM final concentrations respectively. […] This experiment also establishes the appropriate protein concentration to use in subsequent competition experiments with inhibitors.
After an incubation time of 30 minutes at room temperature, the reactions were stopped by the addition of GRP-1 and PIP3-TAMRA probe (Echelon-Inc., Salt Lake City, Utah) 100 nM and 5 nM final concentrations respectively.

[4] = test system: AKT serine-473 phosphorylation in EGF-stimulated PC-3 cells; assay: In vitro phospho-AKT serine 473 cellular assay; format: cell-based; conditions: Homo sapiens
Protocol: The PC-3 cell line is maintained in RPMI1640 media supplemented with 10% FBS, 2 mM Glutamine, and 10 mM HEPES pH 7.4 at 37° C. in a 5% CO2 humidified incubator.
Cells are seeded in 384-well plates at 7,000 cells/well in […] growth media. After 24 hours, growth media is removed and replaced with RPMI1640 containing no FBS. Cells are treated with 10 concentrations of test compounds or DMSO alone for controls (final DMSO concentration 0.5%) and incubated at 37° C. for 30 minutes. Cells are then stimulated for 10 minutes with 100 ng/ml EGF (final concentration). One column of controls is not stimulated with EGF to observe the signal ratio between stimulated and non-stimulated cells. After 10 minutes, compounds and stimulation media are removed and replaced with 25 μl lysis buffer containing protease inhibitors and phosphatase inhibitors. This buffer contains detergent to bring about cellular disruption. […] Following the transfer of lysate to the MSD plate, AKT in the lysate is captured on the coated antibody by incubation on a shaker at 4° C. for 16 hours. Following the capture step the plate is washed and then incubated for two hours with an antibody to S473 phosphorylated AKT which is conjugated with a Sulfo-Tag. This tag gives a signal when in proximity to the electrode on the base of the MSD plate. Binding the tagged antibody to the captured protein allow detection on a MSD reader.
EC50 values are calculated using MDL Assay Explorer 3.0.1.8 fitting a sigmoidal curve with a variable slope.

[5] = PC-3, read-out: IC50 value, cell proliferation
[6] = PC-3, with PC3 cells, read-out: IC50 value, cell proliferation
[7] = recombinant mTOR+GBL, 8 uM ATP, Ki apparent
[8] = PC-3 cells stimulated with EGF, read-out: EC50 activity level, inhibition of S473 AKT phosphorylation

T1 sequence (P42345 1360-2549): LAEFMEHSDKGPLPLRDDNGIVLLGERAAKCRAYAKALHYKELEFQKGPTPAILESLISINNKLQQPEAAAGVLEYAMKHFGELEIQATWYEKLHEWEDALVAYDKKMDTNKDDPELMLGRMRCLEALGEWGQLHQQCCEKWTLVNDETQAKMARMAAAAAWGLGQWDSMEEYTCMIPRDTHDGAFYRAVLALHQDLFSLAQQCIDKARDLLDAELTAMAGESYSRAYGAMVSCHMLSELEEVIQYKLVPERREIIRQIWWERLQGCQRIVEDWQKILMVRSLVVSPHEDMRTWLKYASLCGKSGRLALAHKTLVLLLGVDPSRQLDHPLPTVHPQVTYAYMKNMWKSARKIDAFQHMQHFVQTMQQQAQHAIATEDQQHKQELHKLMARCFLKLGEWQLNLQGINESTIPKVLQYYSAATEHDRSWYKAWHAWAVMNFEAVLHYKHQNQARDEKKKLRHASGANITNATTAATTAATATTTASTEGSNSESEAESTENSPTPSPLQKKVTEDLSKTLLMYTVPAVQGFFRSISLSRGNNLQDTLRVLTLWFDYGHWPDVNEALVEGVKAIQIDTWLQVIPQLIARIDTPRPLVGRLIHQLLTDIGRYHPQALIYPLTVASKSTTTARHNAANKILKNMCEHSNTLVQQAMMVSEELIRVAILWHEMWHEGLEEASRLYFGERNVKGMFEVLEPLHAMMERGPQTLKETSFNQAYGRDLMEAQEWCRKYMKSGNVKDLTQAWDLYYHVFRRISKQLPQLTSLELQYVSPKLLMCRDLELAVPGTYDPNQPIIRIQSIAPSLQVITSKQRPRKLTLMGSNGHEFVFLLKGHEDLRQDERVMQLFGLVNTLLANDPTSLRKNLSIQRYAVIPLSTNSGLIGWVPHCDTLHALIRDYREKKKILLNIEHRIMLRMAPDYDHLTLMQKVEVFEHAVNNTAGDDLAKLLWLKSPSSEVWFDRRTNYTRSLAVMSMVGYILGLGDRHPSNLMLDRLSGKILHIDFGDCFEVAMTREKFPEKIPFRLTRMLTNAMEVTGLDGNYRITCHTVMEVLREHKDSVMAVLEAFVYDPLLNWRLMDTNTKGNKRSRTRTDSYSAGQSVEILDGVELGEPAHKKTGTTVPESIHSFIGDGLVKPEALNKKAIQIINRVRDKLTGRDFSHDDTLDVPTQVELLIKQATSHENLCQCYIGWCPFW
T1 sequence (Q9BVC4 whole entry partner): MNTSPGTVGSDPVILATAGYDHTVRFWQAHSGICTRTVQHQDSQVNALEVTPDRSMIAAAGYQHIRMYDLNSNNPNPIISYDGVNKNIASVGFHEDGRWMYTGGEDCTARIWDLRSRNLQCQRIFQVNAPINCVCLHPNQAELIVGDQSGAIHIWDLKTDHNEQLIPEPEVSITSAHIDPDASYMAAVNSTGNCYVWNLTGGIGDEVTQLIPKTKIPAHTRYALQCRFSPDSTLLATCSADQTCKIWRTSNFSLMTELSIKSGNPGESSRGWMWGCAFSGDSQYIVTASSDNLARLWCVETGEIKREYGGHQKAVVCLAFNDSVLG

Ki [1] [nM] | IC50 [2, 6] [nM] | SMILES | Ki [1, 7] [nM] | also measured
– | 10000 | CCNC(=O)Nc1ccc(-c2nc(N3CCOC[C@H]3C)c3c(ncn3C)n2)cc1 [Compound 103, (R)-1-ethyl-3-(4-(7-methyl-6-(3-methylmorpholino)-7H-purin-2-yl)phenyl)urea] | – | –
– | 86 | CCNC(=O)Nc1ccc(-c2nc(N3CCOC[C@@H]3CC)c3c(n2)c(C)nn3C)cc1 [Compound 112, (S)-1-ethyl-3-(4-(7-(3-ethylmorpholino)-1,3-dimethyl-1H-pyrazolo[4,3-d]pyrimidin-5-yl)phenyl)urea] | 2 | –
143 | – | CCNC(=O)Nc1ccc(-c2nc(N3CCOCC3)c3c(ncn3C)n2)cc1 [Compound 101, 1-ethyl-3-(4-(7-methyl-6-morpholino-7H-purin-2-yl)phenyl)urea] | – | –
28 | 2900 | CCNC(=O)Nc1ccc(-c2nc(N3CCOC[C@@H]3CC)c3c(cnn3C)n2)cc1 [Compound 111, (S)-1-ethyl-3-(4-(7-(3-ethylmorpholino)-1-methyl-1H-pyrazolo[4,3-d]pyrimidin-5-yl)phenyl)urea] | – | –
53 | 2400 | CCCCc1nc2nc(-c3ccc(NC(=O)NCC)cc3)nc(N3CCOC[C@@H]3C)c2n1C [Compound 107, (S)-1-(4-(8-butyl-7-methyl-6-(3-methylmorpholino)-7H-purin-2-yl)phenyl)-3-ethylurea] | – | –
– | – | CCNC(=O)Nc1ccc(-c2nc(N3CCOC[C@@H]3C)c3ncn(C)c3n2)cc1 [(S)-1-ethyl-3-(4-(9-methyl-6-(3-methylmorpholino)-9H-purin-2-yl)phenyl)urea, reference compound] | – | selectivity for mTOR kinase over related PI3 kinase (PI3K-alpha) [3]: 29 ×
39 | 5900 | C[C@H]1COCCN1c1nc(-c2ccc(NC(=O)NC3COC3)cc2)nc2cnn(C)c12 [Compound 113, (S)-1-(4-(1-methyl-7-(3-methylmorpholino)-1H-pyrazolo[4,3-d]pyrimidin-5-yl)phenyl)-3-(oxetan-3-yl)urea] | – | –
– | 294 | CCNC(=O)Nc1ccc(-c2nc(N3CCOC[C@@H]3C)c3c(ncn3C)n2)cc1 [Compound 102, (S)-1-ethyl-3-(4-(7-methyl-6-(3-methylmorpholino)-7H-purin-2-yl)phenyl)urea] | – | –
– | – | CCNC(=O)Nc1ccc(-c2nc(N3CCOC[C@@H]3C)c3c(ncn3CC)n2)cc1 [Compound 106, (S)-1-ethyl-3-(4-(7-ethyl-6-(3-methylmorpholino)-7H-purin-2-yl)phenyl)urea] | 40 | EC50 [4, 8]: 511 nM; IC50 [2, 5]: 4200 nM; selectivity for mTOR kinase over related PI3 kinase (PI3K-alpha) [3]: 250 ×
– | – | CCNC(=O)Nc1ccc(-c2nc(N3CCCOCC3)c3c(ncn3C)n2)cc1 [Compound 105, 1-ethyl-3-(4-(7-methyl-6-(1,4-oxazepan-4-yl)-7H-purin-2-yl)phenyl)urea] | 121 | –
– | – | CCNC(=O)Nc1ccc(-c2nc(N3CCOC[C@@H]3C)c3ncn(CC)c3n2)cc1 [(S)-1-ethyl-3-(4-(9-ethyl-6-(3-methylmorpholino)-9H-purin-2-yl)phenyl)urea, reference compound] | – | selectivity for mTOR kinase over related PI3 kinase (PI3K-alpha) [3]: 45 ×
145 | – | C[C@H]1COCCN1c1nc(-c2ccc(NC(=O)NCCS(C)(=O)=O)cc2)nc2cnn(C)c12 [Compound 114, (S)-1-(4-(1-methyl-7-(3-methylmorpholino)-1H-pyrazolo[4,3-d]pyrimidin-5-yl)phenyl)-3-(2-(methylsulfonyl)ethyl)urea] | – | –
– | – | CCNC(=O)Nc1ccc(-c2nc(N3CCOC[C@@H]3C)c3c(n2)nc(C(C)(C)O)n3C)cc1 [Compound 108, (S)-1-ethyl-3-(4-(8-(2-hydroxypropan-2-yl)-7-methyl-6-(3-methylmorpholino)-7H-purin-2-yl)phenyl)urea] | 30 | EC50 [4, 8]: 3500 nM; IC50 [2, 5]: 8000 nM

SMILES | Ki [1] [nM] | IC50 [2, 6] [nM] | Ki [1, 7] [nM] | also measured
CCNC(=O)Nc1ccc(-c2nc(N3CCOC[C@@H]3C)c3c(cnn3C)n2)cc1 [Compound 110, (S)-1-ethyl-3-(4-(1-methyl-7-(3-methylmorpholino)-1H-pyrazolo[4,3-d]pyrimidin-5-yl)phenyl)urea] | 1 | – | – | IC50 [2, 5]: 131 nM; selectivity for mTOR kinase over related PI3 kinase (PI3K-alpha) [3]: 1250 ×
CCNC(=O)Nc1ccc(-c2nc(N3C[C@@H]4C[C@H]3CO4)c3c(cnn3C)n2)cc1 [Compound 109, 1-(4-(7-((1S,4S)-2-oxa-5-azabicyclo[2.2.1]heptan-5-yl)-1-methyl-1H-pyrazolo[4,3-d]pyrimidin-5-yl)phenyl)-3-ethylurea] | 8 | – | – | IC50 [2, 5]: 399 nM
CCNC(=O)Nc1ccc(-c2nc(N3CCOC[C@@H]3CC)c3c(ncn3C)n2)cc1 [Compound 104, (S)-1-ethyl-3-(4-(6-(3-ethylmorpholino)-7-methyl-7H-purin-2-yl)phenyl)urea] | – | 737 | 4 | EC50 ([4]; PC-3, read-out: EC50 activity level, inhibition of S473 AKT phosphorylation): 69 nM

Source: US8828990B2, “N-7 substituted purine and pyrazolopyrimine compounds, compositions and methods of use” (priority 2009, dated 2014)
